pIC50: −log10 of the molar value. Structures can show the parent of a compound that is named as a salt. Where two headings read alike, the source gives them in different places.
Key:
Ebola virus [1] = assay: microbe, parasite or virus in culture; assay type: cell-based, Ebolavirus (EBOV); parameters: Max Effect HepG2: unit not given here; settings: for Emax: HepG2, read-out: Max Effect HepG2
Ebola virus [2] = assay: microbe, parasite or virus in culture; assay type: cell-based, Ebolavirus (EBOV); settings: for IC50: read-out: IC50 (μM) Vero
[3] = Zaire ebolavirus, HepG2, read-out: IC50 (μM) HepG2
[4] = Zaire ebolavirus, Vero, read-out: Max Effect
[5] = Zaire ebolavirus, Vero, read-out: Max Effect Vero

## COc1ccc(CN2CCN(C(c3ccc(F)cc3)c3ccc(F)cc3)CC2)c(OC)c1OC [Lomerizine Dihydrochloride]
Ebola virus [1]; [3]
  IC50: 2.1 µM
Ebola virus [1]; Zaire ebolavirus
  Emax: 91.8%
Ebola virus [2]; Zaire ebolavirus, Vero
  pIC50: 5.00
  IC50: 11 µM
Ebola virus [2]; [4]
  Emax: 66.5%
Ebola virus [2]; [5]
  Emax: 89.9%

## CC(=O)c1ccc2c(c1)N(CCCN1CCC(CCO)CC1)c1ccccc1S2 [Piperacetazine]
Ebola virus [1]
  Max Effect HepG2: 0.954
Ebola virus [1]; read-out: IC50 (μM) HepG2
  IC50: 3.3 µM
Ebola virus [2]
  Max Effect: 0.641
  Max Effect Vero: 0.962
  IC50: 12 µM
Ebola virus [2]; read-out: IC50
  pIC50: 5.18

## CN1[C@@H]2CC[C@H]1C[C@@H](OC(c1ccccc1)c1ccccc1)C2 [Benztropine Mesylate]
Ebola virus [1]; Zaire ebolavirus
  Emax: 94.3%
Ebola virus [2]; [4]
  Emax: 63.3%
Ebola virus [2]; [5]
  Emax: 89.9%

## CCC(C)(C)C(=O)O[C@H]1C[C@@H](C)C=C2C=C[C@H](C)[C@H](CC[C@@H]3C[C@@H](O)CC(=O)O3)[C@H]21 [Simvastatin]
Ebola virus [1]; Zaire ebolavirus
  Emax: 35.3%
Ebola virus [2]; Zaire ebolavirus, Vero
  pIC50: 5.70
  IC50: 20 µM
Ebola virus [2]; [4]
  Emax: 69%
Ebola virus [2]; [5]
  Emax: 55.7%

## CN1CCN(CCCN2c3ccccc3Sc3ccc(Cl)cc32)CC1 [Prochlorperazine Edisylate]
Ebola virus [1]; Zaire ebolavirus
  Emax: 94.7%
Ebola virus [2]; [4]
  Emax: 89%
Ebola virus [2]; [5]
  Emax: 96.3%

## Vinorelbine Tartrate Hydrate
Ebola virus [1]
  Max Effect HepG2: 0.788
Ebola virus [1]; read-out: IC50 (μM) HepG2
  IC50: 0.86 µM
Ebola virus [2]
  Max Effect: 0.472
  Max Effect Vero: 0.256
Ebola virus [2]; read-out: IC50
  pIC50: 5.49

## O=C1Nc2ccc(Cl)cc2[C@@](C#CC2CC2)(C(F)(F)F)O1 [Efavirenz]
Ebola virus [1]; [3]
  IC50: 14 µM
Ebola virus [1]; Zaire ebolavirus
  Emax: 86%
Ebola virus [2]; Zaire ebolavirus, Vero
  pIC50: 5.11
  IC50: 10 µM
Ebola virus [2]; [4]
  Emax: 51.6%
Ebola virus [2]; [5]
  Emax: 63.9%

## CCN(CC)CCOc1ccc(/C(=C(\Cl)c2ccccc2)c2ccccc2)cc1 [Clomiphene Citrate]
Ebola virus [1]; Zaire ebolavirus
  Emax: 93.4%
Ebola virus [2]; [4]
  Emax: 91.2%
Ebola virus [2]; [5]
  Emax: 96.4%

## Nc1ncn([C@@H]2O[C@H](CO)[C@@H](O)[C@H]2O)c(=O)n1 [Azacitidine]
Ebola virus [1]; [3]
  IC50: 10 µM
Ebola virus [1]; Zaire ebolavirus
  Emax: 89.9%
Ebola virus [2]; Zaire ebolavirus, Vero
  pIC50: 5.30
  IC50: 8.9 µM
Ebola virus [2]; [4]
  Emax: 59.5%
Ebola virus [2]; [5]
  Emax: 74.6%

## CN(C)CCCN1c2ccccc2CCc2ccc(Cl)cc21 [Clomipramine Hydrochloride]
Ebola virus [1]; Zaire ebolavirus
  Emax: 89.7%
Ebola virus [2]; [4]
  Emax: 58.5%
Ebola virus [2]; [5]
  Emax: 96.1%

## CO[C@H]1C[C@H](O[C@H]2CC[C@]3(C=O)[C@H]4CC[C@]5(C)[C@@H](C6=CC(=O)OC6)CC[C@]5(O)[C@@H]4CC[C@]3(O)C2)O[C@H](C)[C@H]1O [K-Strophanthin]
Ebola virus [1]; [3]
  IC50: 0.021 µM
Ebola virus [1]; Zaire ebolavirus
  Emax: 86.7%
Ebola virus [2]; Zaire ebolavirus, Vero
  pIC50: > 6.30
  IC50: 0.035 µM
Ebola virus [2]; [4]
  Emax: 90%
Ebola virus [2]; [5]
  Emax: 74.2%

## Cl.Cl.OCCN1CCN(CCC=C2c3ccccc3Sc3ccc(C(F)(F)F)cc32)CC1 (mixture of isomers) [Flupentixol Dihydrochloride]
Ebola virus [1]
  Max Effect HepG2: 0.744
Ebola virus [2]
  Max Effect: 0.660
  Max Effect Vero: 0.959

## COc1ccc(CCN2CCC(Nc3nc4ccccc4n3Cc3ccc(F)cc3)CC2)cc1 [Astemizole]
Ebola virus [1]; Zaire ebolavirus
  Emax: 91.4%
Ebola virus [2]; [4]
  Emax: 83.5%
Ebola virus [2]; [5]
  Emax: 96.5%

## O=c1[nH]c2ccccc2n1C1CCN(CCCC(c2ccc(F)cc2)c2ccc(F)cc2)CC1 [Pimozide]
Ebola virus [1]; [3]
  IC50: 1.7 µM
Ebola virus [1]; Zaire ebolavirus
  Emax: 91%
Ebola virus [2]; Zaire ebolavirus, Vero
  pIC50: 5.32
  IC50: 3.1 µM
Ebola virus [2]; [4]
  Emax: 68.5%
Ebola virus [2]; [5]
  Emax: 96.8%

## CN[C@H]1CC[C@@H](c2ccc(Cl)c(Cl)c2)c2ccccc21 [Sertraline Hydrochloride]
Ebola virus [1]; Zaire ebolavirus
  Emax: 95%
Ebola virus [2]; [4]
  Emax: 41.8%
Ebola virus [2]; [5]
  Emax: 96.2%

## CCN(CC)CCNc1ccc(CO)c2sc3ccccc3c(=O)c12 [Hycanthone]
Ebola virus [1]; [3]
  IC50: 6 µM
Ebola virus [1]; Zaire ebolavirus
  Emax: 96.2%
Ebola virus [2]; Zaire ebolavirus, Vero
  pIC50: 4.98
  IC50: 11 µM
Ebola virus [2]; [4]
  Emax: 59.7%
Ebola virus [2]; [5]
  Emax: 96.8%

## OCCN1CCN(CC/C=C2/c3ccccc3Sc3ccc(C(F)(F)F)cc32)CC1 [Flupentixol Dihydrochloride]
Ebola virus [1]; read-out: IC50 (μM) HepG2
  IC50: 1.6 µM
Ebola virus [2]; read-out: IC50
  pIC50: 5.42
Ebola virus [2]
  IC50: 5.7 µM

## Cc1nc(Nc2ncc(C(=O)Nc3c(C)cccc3Cl)s2)cc(N2CCN(CCO)CC2)n1 [Dasatinib]
Ebola virus [1]; [3]
  IC50: 4.2 µM
Ebola virus [1]; Zaire ebolavirus
  Emax: 94.1%
Ebola virus [2]; Zaire ebolavirus, Vero
  IC50: 16 µM
Ebola virus [2]; [4]
  Emax: 42.8%
Ebola virus [2]; [5]
  Emax: 64.2%

## CN(C)CCOc1ccc(/C(=C(/CCCl)c2ccccc2)c2ccccc2)cc1 [Toremifene Citrate]
Ebola virus [1]; [3]
  IC50: 0.026 µM
Ebola virus [1]; Zaire ebolavirus
  Emax: 94.9%
Ebola virus [2]
  pIC50: < 6.00
  Max Effect: 0.900
Ebola virus [2]; Zaire ebolavirus, Vero
  IC50: 0.16 µM
Ebola virus [2]; [5]
  Emax: 93.5%

## O=C1CCc2ccc(OCCCCN3CCN(c4cccc(Cl)c4Cl)CC3)cc2N1 [Aripiprazole]
Ebola virus [1]; Zaire ebolavirus
  Emax: 94.7%
Ebola virus [2]; [4]
  Emax: 80.7%
Ebola virus [2]; [5]
  Emax: 53%

## CNCCCC12CCC(c3ccccc31)c1ccccc12 [Maprotiline Hydrochloride]
Ebola virus [1]; Zaire ebolavirus
  Emax: 92.5%
Ebola virus [2]; [4]
  Emax: 79.5%
Ebola virus [2]; [5]
  Emax: 98.6%

## Fc1ccc([C@@H]2CCNC[C@H]2COc2ccc3c(c2)OCO3)cc1 [Paroxetine Hydrochloride Hemihydrate]
Ebola virus [1]; [3]
  IC50: 1.4 µM
Ebola virus [1]; Zaire ebolavirus
  Emax: 92%
Ebola virus [2]; Zaire ebolavirus, Vero
  pIC50: 5.03
  IC50: 7.4 µM
Ebola virus [2]; [4]
  Emax: 82%
Ebola virus [2]; [5]
  Emax: 96%

## CC(C)COCC(CN(Cc1ccccc1)c1ccccc1)N1CCCC1 (centres unmarked) [Bepridil Hydrochloride Monohydrate]
Ebola virus [1]; [3]
  IC50: 3.2 µM
Ebola virus [1]; Zaire ebolavirus
  Emax: 91.2%
Ebola virus [2]; Zaire ebolavirus, Vero
  pIC50: 5.51
  IC50: 5.1 µM
Ebola virus [2]; [4]
  Emax: 72%
Ebola virus [2]; [5]
  Emax: 97%

## OCCN1CCN(CCCN2c3ccccc3Sc3ccc(C(F)(F)F)cc32)CC1 [Fluphenazine Hydrochloride]
Ebola virus [1]; Zaire ebolavirus
  Emax: 92%
Ebola virus [2]; [4]
  Emax: 98.8%
Ebola virus [2]; [5]
  Emax: 96.8%

## CCN(CC)CCCC(C)Nc1c2ccc(Cl)cc2nc2ccc(OC)cc12 (centres unmarked) [Quinacrine Dihydrochloride]
Ebola virus [1]; [3]
  IC50: 1 µM
Ebola virus [1]; Zaire ebolavirus
  Emax: 86.2%
Ebola virus [2]; Zaire ebolavirus, Vero
  pIC50: 5.02
  IC50: 5.7 µM
Ebola virus [2]; [4]
  Emax: 77.9%
Ebola virus [2]; [5]
  Emax: 92.3%

## O=C1C(O)=C([C@H]2CC[C@H](c3ccc(Cl)cc3)CC2)C(=O)c2ccccc21 [Atovaquone]
Ebola virus [1]; Zaire ebolavirus
  Emax: 23.1%
Ebola virus [2]; Zaire ebolavirus, Vero
  pIC50: > 6.00
  IC50: 0.44 µM
Ebola virus [2]; [4]
  Emax: 90%
Ebola virus [2]; [5]
  Emax: 73.9%

## CCC(=O)O[C@](Cc1ccccc1)(c1ccccc1)[C@H](C)CN(C)C [Propoxyphene Hydrochloride]
Ebola virus [2]; [4]
  Emax: 42.2%

## O=c1[nH]c2ccccc2n1CCCN1CCN(C(c2ccccc2)c2ccccc2)CC1 [Oxatomide]
Ebola virus [2]; Zaire ebolavirus, Vero
  pIC50: 5.68
Ebola virus [2]; [4]
  Emax: 62.2%

## CN1C[C@H](CNC(=O)OCc2ccccc2)C[C@@H]2c3cccc4c3c(cn4C)C[C@H]21 [Metergoline]
Ebola virus [2]; Zaire ebolavirus, Vero
  pIC50: 5.21
Ebola virus [2]; [4]
  Emax: 57.7%

## COc1c(C)c2c(c(O)c1C/C=C(\C)CCC(=O)OCCN1CCOCC1)C(=O)OC2 [Mycophenolate Mofetil]
Ebola virus [1]; [3]
  IC50: 0.29 µM
Ebola virus [1]; Zaire ebolavirus
  Emax: 88.6%
Ebola virus [2]; Zaire ebolavirus, Vero
  pIC50: > 6.00
Ebola virus [2]; [4]
  Emax: 90%
Ebola virus [2]; [5]
  Emax: 43.8%

## O=S(=O)([O-])[O-].[Mg+2] [Magnesium Sulfate]
Ebola virus [2]
  Max Effect: 0.719
Ebola virus [2]; read-out: IC50
  pIC50: 5.04

## Nc1nc2ccc(Cl)cc2c2nc(-c3ccco3)nn12 [CGS 15943]
Ebola virus [2]; [4]
  Emax: 44.9%

## CN(C)CCOc1ccc(/C(=C(/CCCl)c2ccccc2)c2ccccc2)cc1 [Toremifene]
Ebola virus [2]
  pIC50: 5.57
  Max Effect: 0.461
